Measured values: paper PMC4503959, “Dopamine modulates hemocyte phagocytosis via a D1-like receptor in the rice stem borer, Chilo suppressalis” (Scientific Reports, 2015)

Molecular target: T1, CsDOP1 (Chilo suppressalis, UniProt A0A0K0QVU3)
T1 construct: gene DOP1; receptor in pcDNA3, stably expressed in HEK 293 cells; GPCR coupled to Gs (cAMP increase)
T1 sequence (A0A0K0QVU3 1-409): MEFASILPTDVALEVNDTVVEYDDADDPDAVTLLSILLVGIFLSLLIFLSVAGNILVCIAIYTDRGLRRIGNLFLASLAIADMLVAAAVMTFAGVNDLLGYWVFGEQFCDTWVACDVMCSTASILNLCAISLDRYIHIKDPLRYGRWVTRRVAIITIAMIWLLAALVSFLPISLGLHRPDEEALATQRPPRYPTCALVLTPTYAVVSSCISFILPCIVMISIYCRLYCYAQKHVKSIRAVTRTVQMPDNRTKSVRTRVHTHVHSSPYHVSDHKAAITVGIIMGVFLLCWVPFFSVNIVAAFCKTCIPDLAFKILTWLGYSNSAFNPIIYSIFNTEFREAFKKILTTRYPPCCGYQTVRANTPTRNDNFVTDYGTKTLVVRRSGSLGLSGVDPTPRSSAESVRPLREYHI
Assay: intracellular cAMP accumulation
Type: cell-based

`NCCc1ccc(O)c(O)c1` [dopamine] was tested, and the EC50 was 1.93 nM.
